Test results published in paper PMC5552880, “The Bitter Taste Receptor TAS2R16 Achieves High Specificity and Accommodates Diverse Glycoside Ligands by using a Two-faced Binding Pocket” (Scientific Reports, 2017).
Substitutions are numbered along the chain they refer to. Several values for one entry are separate records, joined by “and”; a condition that tells them apart may be missing. Equal entries are not always repeated. Where two headings read alike, the source gives them in different places.

Legend:
[1] = target: T1, S97R TAS2R16 (Homo sapiens, UniProt Q9NYV7, S97R); experiment: Ca2+ flux assay, mutation library clone S97R; format: cell-based; settings: 3 mM salicin, mean (range, max-min), n=3
T1 construct: Each construct in the mutation library was tested for full-length TAS2R16 translation; V5; expressed in transfected cells; host or cells: HEK-293T
T1 sequence (Q9NYV7 whole entry S97R): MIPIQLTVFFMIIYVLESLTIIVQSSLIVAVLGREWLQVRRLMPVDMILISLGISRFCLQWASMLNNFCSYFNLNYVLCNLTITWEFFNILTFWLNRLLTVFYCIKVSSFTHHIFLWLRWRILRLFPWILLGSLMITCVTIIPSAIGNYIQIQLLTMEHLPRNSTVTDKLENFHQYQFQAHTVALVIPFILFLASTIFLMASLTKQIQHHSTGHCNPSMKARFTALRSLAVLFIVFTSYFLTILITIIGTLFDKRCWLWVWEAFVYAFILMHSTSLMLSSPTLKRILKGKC
Experimental: (§1) The TAS2R16 mutation library was tested for function using a Ca^2+ flux assay as described previously. Later screens of individual TAS2R16 mutant clones used 4-nitrophenyl-β-D-glucopyranoside. Briefly, HEK-293T cells, in poly-lysine coated, black 384-well plates with clear bottoms (Costar), were transfected with the TAS2R16 mutation library, and a plasmid expressing a Gα16 chimera containing the last 44 amino acids of rat gustducin (Gα16gust44). Cells were incubated for 22 hours at 37 °C then washed twice with a calcium indicator dye in HBSS containing 20 mM HEPES (Calcium 4 Assay kit, Molecular Devices), incubated with HBSS for 1.5 hr, then moved to a Flexstation II-384 (Molecular Devices) set at 32 °C. […] Concentrations for mutation library screening were chosen to be approximately 2 to 3 times higher than the EC50 values for the ligands to maximize the sensitivity of detecting decreases in signaling due to the mutation in each clone.
(§2) For Ca^2+ flux assays, the value of fluorescence at 30 seconds after ligand addition (the time of peak signal for wild-type TAS2R16) was used as the maximum value. […] Data sets were analyzed and represented as percentage over baseline signal. Mean and standard deviation values were calculated for each clone from replicate assay data.

[2] = target: T2, N96T TAS2R16 (Homo sapiens, UniProt Q9NYV7, N96T); experiment: Ca2+ flux assay, N96T TAS2R16 variant; format: cell-based; settings: Fig. 7 dose-response
T2 construct: FLAG (N); expressed in transfected cells; host or cells: HEK-293T
T2 sequence (Q9NYV7 whole entry N96T): as the sequence (Q9NYV7 whole entry S97R) above, with N96T, R97S counted along it
Experimental: as §1, §2
Ligand dose-response data was analyzed with Graphpad Prism 5 software. […]

[3] = target: T3, C104R TAS2R16 (Homo sapiens, UniProt Q9NYV7, C104R); experiment: Ca2+ flux assay, mutation library clone C104R; format: cell-based; settings: 3 mM salicin, mean (range, max-min), n=3
T3 construct: Each construct in the mutation library was tested for full-length TAS2R16 translation; V5; expressed in transfected cells; host or cells: HEK-293T
T3 sequence (Q9NYV7 whole entry C104R): as the sequence (Q9NYV7 whole entry S97R) above, with R97S, C104R counted along it
Experimental: as §1, §2

[4] = target: T4, L276R TAS2R16 (Homo sapiens, UniProt Q9NYV7, L276R); experiment: Ca2+ flux assay, mutation library clone L276R; format: cell-based; settings: 3 mM salicin, mean (range, max-min), n=3
T4 construct: V5; expressed in transfected cells; host or cells: HEK-293T
T4 sequence (Q9NYV7 whole entry L276R): as the sequence (Q9NYV7 whole entry S97R) above, with R97S, L276R counted along it
Experimental: as §1, §2

[5] = target: T5, L191R TAS2R16 (Homo sapiens, UniProt Q9NYV7, L191R); experiment: Ca2+ flux assay, mutation library clone L191R; format: cell-based; settings: 3 mM salicin, mean (range, max-min), n=3
T5 construct: Each construct in the mutation library was tested for full-length TAS2R16 translation; V5; expressed in transfected cells; host or cells: HEK-293T
T5 sequence (Q9NYV7 whole entry L191R): as the sequence (Q9NYV7 whole entry S97R) above, with R97S, L191R counted along it
Experimental: as §1, §2

[6] = target: T6, D46A TAS2R16 (Homo sapiens, UniProt Q9NYV7, D46A); experiment: Ca2+ flux assay, mutation library clone D46A; format: cell-based; settings: 3 mM salicin, mean (range, max-min), n=3
T6 construct: FLAG (N); expressed in transfected cells; host or cells: HEK-293T
T6 sequence (Q9NYV7 whole entry D46A): as the sequence (Q9NYV7 whole entry S97R) above, with D46A, R97S counted along it
Experimental: as §1, §2

[7] = target: T7, N172K TAS2R16 (Homo sapiens, UniProt Q9NYV7, N172K); experiment: Ca2+ flux assay, mutation library clone N172K; format: cell-based; settings: 3 mM salicin, mean (range, max-min), n=3
T7 construct: Each construct in the mutation library was tested for full-length TAS2R16 translation; V5; expressed in transfected cells; host or cells: HEK-293T
T7 sequence (Q9NYV7 whole entry N172K): as the sequence (Q9NYV7 whole entry S97R) above, with R97S, N172K counted along it
Experimental: as §1, §2

[8] = target: T8, W261A TAS2R16 (Homo sapiens, UniProt Q9NYV7, W261A); experiment: Ca2+ flux assay, W261A TAS2R16 variant; format: cell-based
T8 construct: FLAG (N); expressed in transfected cells; host or cells: HEK-293T
T8 sequence (Q9NYV7 1-291 W261A): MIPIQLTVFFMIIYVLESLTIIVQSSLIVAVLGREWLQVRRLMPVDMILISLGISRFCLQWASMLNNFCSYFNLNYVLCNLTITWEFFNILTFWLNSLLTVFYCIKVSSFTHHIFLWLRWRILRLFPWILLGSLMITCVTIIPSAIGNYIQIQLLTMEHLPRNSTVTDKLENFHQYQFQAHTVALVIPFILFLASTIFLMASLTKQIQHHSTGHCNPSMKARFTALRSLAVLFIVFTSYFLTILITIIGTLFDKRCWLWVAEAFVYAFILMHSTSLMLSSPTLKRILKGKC
Experimental: as §1
(§3) For Ca^2+ flux assays, the value of fluorescence at 30 seconds after ligand addition (the time of peak signal for wild-type TAS2R16) was used as the maximum value. […] Raw data obtained from surface expression and flux experiments were normalized to the values for wild-type TAS2R16 on each plate. Data sets were analyzed and represented as percentage over baseline signal. Mean and standard deviation values were calculated for each clone from replicate assay data.
(§4) Ligand dose-response data was analyzed with Graphpad Prism 5 software. Data was baseline subtracted and then fit using a sigmoidal dose-response (variable slope) equation.

[9] = target: T9, Y14H TAS2R16 (Homo sapiens, UniProt Q9NYV7, Y14H); experiment: Ca2+ flux assay, mutation library clone Y14H; format: cell-based; settings: 3 mM salicin, mean (range, max-min), n=3
T9 construct: FLAG (N); expressed in transfected cells; host or cells: HEK-293T
T9 sequence (Q9NYV7 whole entry Y14H): as the sequence (Q9NYV7 whole entry S97R) above, with Y14H, R97S counted along it
Experimental: as §1, §2

[10] = target: T10, R56P TAS2R16 (Homo sapiens, UniProt Q9NYV7, R56P); experiment: Ca2+ flux assay, mutation library clone R56P; format: cell-based; settings: 3 mM salicin, mean (range, max-min), n=3
T10 construct: FLAG (N); expressed in transfected cells; host or cells: HEK-293T
T10 sequence (Q9NYV7 whole entry R56P): as the sequence (Q9NYV7 whole entry S97R) above, with R56P, R97S counted along it
Experimental: as §1, §2

[11] = target: T11, W61R TAS2R16 (Homo sapiens, UniProt Q9NYV7, W61R); experiment: Ca2+ flux assay, mutation library clone W61R; format: cell-based; settings: 3 mM salicin, mean (range, max-min), n=3
T11 construct: V5; expressed in transfected cells; host or cells: HEK-293T
T11 sequence (Q9NYV7 whole entry W61R): as the sequence (Q9NYV7 whole entry S97R) above, with W61R, R97S counted along it
Experimental: as §1, §2

[12] = target: T12, Q60R TAS2R16 (Homo sapiens, UniProt Q9NYV7, Q60R); experiment: Ca2+ flux assay, mutation library clone Q60R; format: cell-based; settings: 3 mM salicin, mean (range, max-min), n=3
T12 construct: V5; expressed in transfected cells; host or cells: HEK-293T
T12 sequence (Q9NYV7 whole entry Q60R): as the sequence (Q9NYV7 whole entry S97R) above, with Q60R, R97S counted along it
Experimental: as §1, §2

[13] = target: T13, L134R TAS2R16 (Homo sapiens, UniProt Q9NYV7, L134R); experiment: Ca2+ flux assay, mutation library clone L134R; format: cell-based; settings: 3 mM salicin, mean (range, max-min), n=3
T13 construct: Each construct in the mutation library was tested for full-length TAS2R16 translation; V5; expressed in transfected cells; host or cells: HEK-293T
T13 sequence (Q9NYV7 whole entry L134R): as the sequence (Q9NYV7 whole entry S97R) above, with R97S, L134R counted along it
Experimental: as §1, §2

[14] = tested on: TAS2R16; settings: read-out: EC50, reported value; cited from earlier work
[15] = target: T14, wild-type TAS2R16 (Homo sapiens, UniProt Q9NYV7); experiment: Ca2+ flux assay, HEK-293T cells expressing wild-type TAS2R16 and Gα16gust44; format: cell-based
T14 construct: FLAG (N); expressed in transfected cells; host or cells: HEK-293T
T14 sequence (Q9NYV7 1-291): T8 sequence (Q9NYV7 1-291 W261A) with A261W
Experimental: as §1, §3, §4

[16] = target: T15, M271R TAS2R16 (Homo sapiens, UniProt Q9NYV7, M271R); experiment: Ca2+ flux assay, mutation library clone M271R; format: cell-based; settings: 3 mM salicin, mean (range, max-min), n=3
T15 construct: Each construct in the mutation library was tested for full-length TAS2R16 translation; V5; expressed in transfected cells; host or cells: HEK-293T
T15 sequence (Q9NYV7 whole entry M271R): as the sequence (Q9NYV7 whole entry S97R) above, with R97S, M271R counted along it
Experimental: as §1, §2

[17] = target: T16, C58R TAS2R16 (Homo sapiens, UniProt Q9NYV7, C58R); experiment: Ca2+ flux assay, mutation library clone C58R; format: cell-based; settings: 3 mM salicin, mean (range, max-min), n=3
T16 construct: V5; expressed in transfected cells; host or cells: HEK-293T
T16 sequence (Q9NYV7 whole entry C58R): as the sequence (Q9NYV7 whole entry S97R) above, with C58R, R97S counted along it
Experimental: as §1, §2

- Ca2+ flux in response to salicin [1]: 0 (5) % of wild-type
- EC50 [2]: 800 µM
- Ca2+ flux in response to salicin [3]: 9 (1) % of wild-type
- Ca2+ flux in response to salicin [4]: 17 (7) % of wild-type
- Ca2+ flux in response to salicin [5]: 1 (3) % of wild-type
- Ca2+ flux in response to salicin [6]: 8 (9) % of wild-type
- EC50 ([8]; Fig. 5b dose-response, W261A TAS2R16): ~13400 µM
- activation of W261A variant ([8]; W261A TAS2R16, relative to wild-type): eliminated activation
- Ca2+ flux in response to salicin [9]: 9 (9) % of wild-type
- Ca2+ flux in response to salicin [10]: 2 (1) % of wild-type
- Ca2+ flux in response to salicin [11]: 15 (7) % of wild-type
- Ca2+ flux in response to salicin [12]: 4 (7) % of wild-type
- Ca2+ flux in response to salicin [13]: 1 (8) % of wild-type
- EC50 ([15]; Fig. 5b dose-response, wild-type TAS2R16, read-out: EC50 (WT)): 1100 µM
- EC50 ([15]; Fig. 6 comparative dose-response, wild-type TAS2R16, read-out: EC50 (WT)): 1700 µM
- EC50 ([15]; Fig. 7 dose-response, wild-type TAS2R16, read-out: EC50 (WT)): 5500 µM
- EC50 ([15]; Fig. 2d dose-response, wild-type TAS2R16, HEK-293T, read-out: EC50): 1200 µM
- activation of wild-type TAS2R16 ([15]; wild-type TAS2R16, HEK-293T): robust receptor activation
- Ca2+ flux in response to salicin [16]: 7 (6) % of wild-type
- Ca2+ flux in response to salicin [17]: 5 (2) % of wild-type
SMILES: OCc1ccccc1O[C@@H]1O[C@H](CO)[C@@H](O)[C@H](O)[C@H]1O [salicin]
- Ca2+ flux in response to salicin [7]: 83 (13) % of wild-type and 83 % of wild-type
- EC50 [14]: 3000 µM
